Experimental data as given in PubChem BioAssay (NCI).
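A five-concentration, 48-hour dose response in 96-well plates underlies each endpoint, interpolated linearly between surrounding concentrations. GI50 marks 50% less growth. TGI: concentration producing complete growth inhibition.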

Columns and labels:
Assay in all cases: growth of human tumour cells (NCI), 48 h
[1] = tested on: BT-549 breast
[2] = tested on: MCF7 breast
[3] = tested on: MOLT-4 leukemia
[4] = tested on: SR leukemia
[5] = tested on: SK-MEL-2 melanoma
[6] = tested on: HOP-92 NSCLC
[7] = tested on: RXF 393 renal
[8] = tested on: SF-268 CNS
[9] = tested on: HL-60(TB) leukemia
[10] = tested on: K-562 leukemia

## CO/N=C1\CCc2c(sc(NC(=O)c3cccc(C(F)(F)F)c3)c2C(N)=O)C1
[1]
  GI50: 3.53 µM
  TGI: > 100 µM
[2]
  GI50: 2.37 µM
  TGI: > 100 µM
[3]
  GI50: > 100 µM
  TGI: > 100 µM
[4]
  GI50: > 100 µM
  TGI: > 100 µM
[5]
  GI50: 4.08 µM
  TGI: 96.3 µM
[6]
  GI50: 1.56 µM
  TGI: 4.06 µM
[7]
  GI50: 1.91 µM
  TGI: 3.65 µM
[8]
  GI50: 4.25 µM
  TGI: > 100 µM
[9]
  GI50: > 100 µM
  TGI: > 100 µM
[10]
  GI50: > 100 µM
  TGI: > 100 µM
